What was measured:
[1] = target: T1, Protein deacetylase HDAC6 (Homo sapiens) (UniProt Q9UBN7); experiment: Inhibition of full-length recombinant human HDAC6 expressed in insect High5 cells using Boc-Lys(-acetyl)-AMC as substrate incubated for 3 hrs; parameters: concentration or dose not given beside the values; conditions: concentration not given here
T1 sequence (whole entry): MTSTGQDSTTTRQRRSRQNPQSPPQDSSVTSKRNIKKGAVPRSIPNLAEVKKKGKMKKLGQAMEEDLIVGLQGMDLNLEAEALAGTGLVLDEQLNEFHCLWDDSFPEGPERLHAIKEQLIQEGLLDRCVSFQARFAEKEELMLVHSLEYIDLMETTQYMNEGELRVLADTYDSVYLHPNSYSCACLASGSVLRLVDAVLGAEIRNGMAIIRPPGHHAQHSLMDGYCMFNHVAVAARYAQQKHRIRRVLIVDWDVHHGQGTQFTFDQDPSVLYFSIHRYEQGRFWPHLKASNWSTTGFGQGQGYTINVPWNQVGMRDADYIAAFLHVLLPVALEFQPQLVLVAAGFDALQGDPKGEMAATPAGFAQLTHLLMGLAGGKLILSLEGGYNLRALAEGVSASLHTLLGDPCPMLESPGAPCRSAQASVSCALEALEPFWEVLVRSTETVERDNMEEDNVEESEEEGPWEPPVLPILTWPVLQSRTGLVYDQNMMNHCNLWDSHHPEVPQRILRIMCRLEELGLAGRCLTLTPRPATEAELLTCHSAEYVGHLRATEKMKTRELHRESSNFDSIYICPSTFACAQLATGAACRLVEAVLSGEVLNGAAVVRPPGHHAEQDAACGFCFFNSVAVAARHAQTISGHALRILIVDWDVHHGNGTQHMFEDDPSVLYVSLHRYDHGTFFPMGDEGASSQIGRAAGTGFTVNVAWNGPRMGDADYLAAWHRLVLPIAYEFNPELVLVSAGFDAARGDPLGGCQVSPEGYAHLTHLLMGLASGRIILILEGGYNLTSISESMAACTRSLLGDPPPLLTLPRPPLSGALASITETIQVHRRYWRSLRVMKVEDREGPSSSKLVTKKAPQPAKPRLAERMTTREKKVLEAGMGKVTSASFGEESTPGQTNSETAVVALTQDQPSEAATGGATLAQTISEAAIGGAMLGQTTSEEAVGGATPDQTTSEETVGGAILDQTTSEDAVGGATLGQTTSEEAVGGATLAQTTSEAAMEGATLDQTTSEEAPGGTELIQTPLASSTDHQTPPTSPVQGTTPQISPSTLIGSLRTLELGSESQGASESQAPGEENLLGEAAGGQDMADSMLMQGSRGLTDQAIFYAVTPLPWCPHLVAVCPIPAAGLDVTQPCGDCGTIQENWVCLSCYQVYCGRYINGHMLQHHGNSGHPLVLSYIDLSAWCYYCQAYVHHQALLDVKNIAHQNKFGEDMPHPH

[2] = target: T2, Aurora kinase A (Homo sapiens) (UniProt O14965); experiment: Inhibition of aurora kinase A (unknown origin) incubated for 60 mins by fluorescence analysis
T2 sequence (whole entry): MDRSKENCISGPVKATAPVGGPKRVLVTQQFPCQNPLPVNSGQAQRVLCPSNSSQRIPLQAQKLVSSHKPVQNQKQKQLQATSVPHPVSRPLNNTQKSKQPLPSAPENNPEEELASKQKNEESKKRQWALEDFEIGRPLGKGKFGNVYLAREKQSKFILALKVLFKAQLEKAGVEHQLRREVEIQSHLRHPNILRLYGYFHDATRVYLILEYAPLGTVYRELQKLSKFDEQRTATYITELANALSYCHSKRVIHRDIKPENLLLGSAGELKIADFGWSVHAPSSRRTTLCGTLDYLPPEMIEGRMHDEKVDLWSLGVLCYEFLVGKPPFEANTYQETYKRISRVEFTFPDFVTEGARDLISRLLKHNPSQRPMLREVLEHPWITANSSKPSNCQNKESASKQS

[3] = target: T3, Tyrosine-protein phosphatase non-receptor type 1 (Homo sapiens) (UniProt P18031); experiment: Inhibition of PTP1B (unknown origin) using pNPP as substrate at 20 ug/ml measured for 3 mins by colorimetric assay
T3 sequence (whole entry): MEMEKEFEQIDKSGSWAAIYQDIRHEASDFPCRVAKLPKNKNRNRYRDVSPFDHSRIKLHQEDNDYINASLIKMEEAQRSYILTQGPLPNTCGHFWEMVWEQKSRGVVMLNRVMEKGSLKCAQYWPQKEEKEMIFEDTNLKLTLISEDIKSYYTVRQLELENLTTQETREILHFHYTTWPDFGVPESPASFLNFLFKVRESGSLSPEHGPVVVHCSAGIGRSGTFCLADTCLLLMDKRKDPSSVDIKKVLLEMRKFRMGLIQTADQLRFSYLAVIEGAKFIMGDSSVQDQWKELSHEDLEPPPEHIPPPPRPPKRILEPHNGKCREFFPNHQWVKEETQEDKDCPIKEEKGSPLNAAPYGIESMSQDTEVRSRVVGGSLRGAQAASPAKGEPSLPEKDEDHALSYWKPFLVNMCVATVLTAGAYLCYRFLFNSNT

[4] = target: Tyrosine-protein phosphatase non-receptor type 1, PTP1B (Homo sapiens) (UniProt P18031); experiment: Inhibition of human PTP1B protein expressed in insect High5 cells by Z-LYTE kinase assay; conditions: concentration not given here

SMILES	inhibition [1] [%]	also measured
COC(=O)[C@@H]1C[C@@]23C(=O)[C@H]4[C@H](O)[C@H]5N(C[C@@H](CCC6=C2[C@@H]1CC6)[C@]53C)C[C@H]4C	< 10	
COC(=O)[C@@H]1C[C@@]23C(=O)[C@H]4C[C@H]5N(C[C@@H](CCC6=C2[C@@H]1C[C@H]6O)[C@]53C)C[C@H]4C	< 10	
C[C@@H]1CN2C[C@H]3CC[C@]4(O)C[C@H](O)C5=C4[C@@]4(CC5)C(=O)[C@H]1C[C@@H]2[C@@]34C	< 10	
COC(=O)[C@@H]1C[C@@]23C(=O)[C@H]4C[C@H]5N(C[C@@H](C[C@H](O)C6=C2[C@@H]1CC6)[C@]53C)C[C@H]4C	< 10	
COC(=O)C1=C2CCC3=C2[C@@]2(C1)C(=O)[C@H]1C[C@@]4(O)N(C[C@@H](CC3)[C@@]24C)C[C@H]1C	< 10	inhibition [2]: > 30%
C[C@@H]1CN2C[C@H]3CC[C@H](O)[C@@H]4C5=C(C[C@@]46C(=O)[C@H]1C[C@@H]2[C@@]36C)C(=O)OCC5	< 10	
C[C@@H]1CN2C[C@H]3CC[C@@H]4C(=O)C=C5CC[C@@]6(C(=O)[C@H]1C[C@@H]2[C@@]36C)[C@@]54O	< 10	inhibition [3]: 40%; inhibition [4]: 44%
COC(=O)[C@@H]1C[C@@]23C(=O)[C@H]4C[C@H]5N(C[C@@H](C[C@@H](O)C6=C2[C@@H]1CC6)[C@]53C)C[C@H]4C	< 10	
C[C@@H]1CN2C[C@H]3CC[C@H](O)[C@@H]4C(CCO)=C(C(=O)O)C[C@@]45C(=O)[C@H]1C[C@@H]2[C@@]35C	< 10	
COC(=O)[C@@H]1C[C@@]23C(=O)[C@H]4C[C@H]5N(C[C@H]4C)C[C@@H]([C@H](O)CC4=C2[C@@H]1CC4)[C@]53C	< 10	
COC(=O)C1=C2C[C@H](O)C3=C2[C@@]2(C1)C(=O)[C@H]1C[C@H]4N(C[C@@H](CC3)[C@]42C)C[C@H]1C	< 10	inhibition [3]: 40%
COC(=O)[C@@H]1C[C@@]23C(=O)[C@H]4C[C@H]5N(C[C@H]4C)C[C@@H]([C@@H](O)CC4=C2[C@@H]1CC4)[C@]53C	< 10	
C[C@@H]1CN2C[C@H]3CCC4=C5C(=CC[C@@]56C(=O)[C@H]1C[C@@H]2[C@@]36C)[C@@H](O)C4	< 10	
